The record followed here is patent publication US20230357162A1, “COMPOUNDS, COMPOSITIONS AND METHODS” (Denali Therapeutics Inc., priority 2020, published 2023).

For the experiment, the system named is IL-1β secretion, THP-1 cells. Kind of experiment: IL-1β secretion assay in PMA-differentiated THP-1 cells stimulated with LPS and nigericin (ELISA readout). The class given is cell-based. The conditions noted are these: Homo sapiens, THP-1, inhibition of IL-1β secretion, 25 ng/mL LPS then nigericin. The procedure: Compounds as provided herein were tested in the following assay. Cell culture medium employed contained RPMI 1640 medium (89%), FBS (10%), Pen/Strep (1%), and 2-mercaptoethanol (0.05 mM). Freezing medium was made up of 90% FBS and 10% DMSO. THP-1 cells were removed from the liquid nitrogen and placed into a 37° C. water bath to thaw, until signs of ice dissipated. The cells were then added to 9 mL of warm cell culture medium and centrifuged for 5 minutes at 1000 rpm. The supernatant was discarded, and the cells were resuspended in new cell culture medium. THP-1 cells were then split and cultured in the cell culture medium, being passaged every 2-3 days with the cell density will be maintained between 5×10^5 and 1.5×10^6 viable cells/mL.
PMA was dissolved in DMSO to make a stock solution at 5 mg/ml and stored in 10 µl aliquots at -20° C. for single use. PMA is added to normal growth medium. LPS was diluted with 1 mL of water solution to provide a 1 mg/mL stock solution and stored in 15 µl aliquots at -20° C. for single use. Nigericin is diluted in ice cold 100% ethanol to 5 mg/ml (6.7 mM) and stored in 75 µL aliquots at -20° C. for single use. Serum-free media contains RPMI 1640 medium (99%), Pen/Strep (1%), and 2-mercaptoethanol (0.05 mM). The two control conditions used to qualify and normalize test compound dose-response curves were as follows: High Control = 25 ng/mL LPS, 5 µM Nigericin, 0.5% DMSO, Low Control = 25 ng/mL, LPS, 0.5% DMSO.
THP-1 cells were diluted to provide a suspension at a concentration of 1.0×10^6 cells/mL with the total volume of suspension required to enable the desired number of assay plates. The growth media was supplemented with PMA (5 ng/mL final concentration) and the cells were incubated at 37° C. under a humidified atmosphere of 5% CO2 for 40 h.
All media was carefully aspirated from each culture flask. The cells were washed carefully with 1x DPBS. The cells were then briefly digested with trypsin LE for 5 minutes at 23° C. and immediately resuspended in cell growth media. After resuspension, the cells were centrifuged at 1000 rpm for 3 minutes and the supernatant was discarded. The cells were resuspended in DPBS and once again centrifuged at 1000 rpm for 5 minutes. The supernatant was discarded and the cell pellet was resuspended in serum-free media supplemented with LPS (25 ng/mL final concentration) to enable the distribution of 30 K THP-1 cells within 45 µL of media into each well of 384-well PDL-coated plates. The 384-well plates were then incubated at 37° C. under a humidified atmosphere of 5% CO2 for 2 h. Following this period, test compounds were dispensed by Tecan across the desired concentration range with all wells normalized to a final 0.5 % DMSO concentration. The plates were then then incubated at 37° C. under a humidified atmosphere of 5% CO2 for 1 h. Following this period, 5 µL of the […] nigericin stock solution was added to each of the appropriate wells and plates were centrifuged at 1000 rpm for 30 seconds. The plates were the immediately reintroduced to the incubator at 37° C. under a humidified atmosphere of 5% CO2 for 2 h. After this time, 35 µL/well of supernatant was collected and transferred into v-bottom plate and centrifuged at 1000 rpm for 1 minute. These supernatant aliquots were analyzed using an IL-Iβ detection kit as described below. If needed, the test samples could be snap frozen and stored at -80° C. until analyzed.
To prepare each ELISA plate, capture antibody (mAb Mt175) was diluted with PBS to a final concentration of 2 µg/mL and then 20 µL of this solution was added to each well of the ELISA plate. Each plate was allowed to incubate overnight at 4° C. The next day, the capture antibody solution was removed and discarded. Each ELISA plate was washed 4 times with PBST followed by the addition of 25 µL/well of blocking buffer (Licor-927-40010) supplemented with 0.1% Tween 20. Each ELISA plate was then allowed to incubate for 1 hour at 23° C. […]
For orientation: In an ELISA, binding on a coated surface is turned into a signal by an enzyme label.

As usually defined, the IC50 is the point on the concentration scale where inhibition reaches its midpoint. Read a low IC50 as higher potency. As to `CC(C)c1nn(CC(=O)Nc2ncncc2F)c(=O)c2ccc(I)cc12` [Example 20, N-(5-fluoropyrimidin-4-yl)-2-(6-iodo-1-oxo-4-propan-2-ylphthalazin-2-yl)acetamide], the IC50 was less than 10000 nM (class column of Table 3) and 18 nM (numeric column of Table 3).

With `CC(C)c1nn(CC(=O)Nc2ncncc2F)c(=O)c2ccc(C(F)F)cc12` [Example 21, 2-[6-(difluoromethyl)-1-oxo-4-propan-2-ylphthalazin-2-yl]-N-(5-fluoropyrimidin-4-yl)acetamide], the IC50 is less than 10000 nM (class column of Table 3) and 1060 nM (numeric column of Table 3).

For `CC(C)c1nn(CC(=O)Nc2ncncc2F)c(=O)c2ccc(Br)nc12` [Example 22, 2-(2-bromo-5-oxo-8-propan-2-ylpyrido[2,3-d]pyridazin-6-yl)-N-(5-fluoropyrimidin-4-yl)acetamide], the half-inhibitory concentration (IC50) runs as follows: (class column of Table 3) less than 10000 nM; (numeric column of Table 3) 398 nM.

`CSc1ccc2c(=O)n(CC(=O)Nc3ncncc3F)nc(C(C)C)c2n1` [Example 23, N-(5-fluoropyrimidin-4-yl)-2-(2-methylsulfanyl-5-oxo-8-propan-2-ylpyrido[2,3-d]pyridazin-6-yl)acetamide]: the IC50 (class column of Table 3) was less than 10000 nM and it took 2070 nM to reach half-maximal inhibition (numeric column of Table 3) (IC50).

For `CC(C)c1nn(CC(=O)Nc2ncncc2F)c(=O)c2ccc(C(F)(F)F)nc12` [Example 24, N-(5-fluoropyrimidin-4-yl)-2-[5-oxo-8-propan-2-yl-2-(trifluoromethyl)pyrido[2,3-d]pyridazin-6-yl]acetamide], the IC50 runs as follows: (class column of Table 3) less than 10000 nM; (numeric column of Table 3) 138 nM.

As to `O=C(Cn1nc(C(F)F)c2cc(C(F)(F)F)ccc2c1=O)Nc1ncc(F)cn1` [Example 25, 2-[4-(difluoromethyl)-1-oxo-6-(trifluoromethyl)phthalazin-2-yl]-N-(5-fluoropyrimidin-2-yl)acetamide], the IC50 reads like this: (class column of Table 3) less than 10000 nM; (numeric column of Table 3) 689 nM.

As to `O=C(Cn1nc(C(F)F)c2c(F)c(Br)ccc2c1=O)Nc1ncc(F)cn1` [Example 26, 2-[6-bromo-4-(difluoromethyl)-5-fluoro-1-oxophthalazin-2-yl]-N-(5-fluoropyrimidin-2-yl)acetamide], the IC50 runs as follows: (class column of Table 3) less than 10000 nM; (numeric column of Table 3) 78 nM.

Turning to `O=C(Cn1nc(C(F)F)c2c(F)c(Br)ccc2c1=O)Nc1ncccn1` [Example 27, 2-[6-bromo-4-(difluoromethyl)-5-fluoro-1-oxophthalazin-2-yl]-N-pyrimidin-2-ylacetamide], the IC50 runs as follows: (class column of Table 3) less than 10000 nM; (numeric column of Table 3) 137 nM.

With `N#Cc1cnc(NC(=O)Cn2nc(C(F)F)c3c(F)c(Br)ccc3c2=O)c(F)c1` [Example 28, 2-[6-bromo-4-(difluoromethyl)-5-fluoro-1-oxophthalazin-2-yl]-N-(5-cyano-3-fluoropyridin-2-yl)acetamide], the IC50 (class column of Table 3) was less than 10000 nM and the IC50 (numeric column of Table 3) is 307 nM.

In the case of `COc1ccc(NC(=O)Cn2nc(C(C)C)c3cc(Br)ccc3c2=O)cn1` [Example 29, 2-(6-bromo-1-oxo-4-propan-2-ylphthalazin-2-yl)-N-(6-methoxypyridin-3-yl)acetamide], the IC50 is less than 10000 nM (class column of Table 3) and 286 nM (numeric column of Table 3).

Take `CC(C)c1nn(CC(=O)Nc2ccc(Cl)nc2)c(=O)c2ccc(Br)cc12` [Example 30, 2-(6-bromo-1-oxo-4-propan-2-ylphthalazin-2-yl)-N-(6-chloropyridin-3-yl)acetamide]: the IC50 is less than 10000 nM (class column of Table 3) and 519 nM (numeric column of Table 3).

Take `Cc1ncc(F)c(NC(=O)Cn2nc(C(C)C)c3cc(Br)ccc3c2=O)n1` [Example 31, 2-(6-bromo-1-oxo-4-propan-2-ylphthalazin-2-yl)-N-(5-fluoro-2-methylpyrimidin-4-yl)acetamide]: the IC50 by setting is: (class column of Table 3) less than 10000 nM; (numeric column of Table 3) 1320 nM.

Take `COc1nn(CC(=O)Nc2ncc(F)cn2)c(=O)c2ccc(Br)cc12` [Example 32, 2-(6-bromo-4-methoxy-1-oxophthalazin-2-yl)-N-(5-fluoropyrimidin-2-yl)acetamide]: the IC50 is less than 10000 nM (class column of Table 3) and 128 nM (numeric column of Table 3).

For the molecule `CC(C)c1nn(CC(=O)Nc2ccncn2)c(=O)c2ccc(Br)cc12` [Example 33, 2-(6-bromo-1-oxo-4-propan-2-ylphthalazin-2-yl)-N-pyrimidin-4-ylacetamide], the IC50 (class column of Table 3) is less than 10000 nM and the IC50 (numeric column of Table 3) stood at 176 nM.

Turning to `CC(C)c1nn(CC(=O)Nc2ccnc(C(F)(F)F)n2)c(=O)c2ccc(Br)cc12` [Example 34, 2-(6-bromo-1-oxo-4-propan-2-ylphthalazin-2-yl)-N-[2-(trifluoromethyl)pyrimidin-4-yl]acetamide], the IC50 reads like this: (class column of Table 3) less than 10000 nM; (numeric column of Table 3) 1890 nM.

For `CC(C)c1nn(CC(=O)Nc2ncccc2F)c(=O)c2ccc(Br)cc12` [Example 35, 2-(6-bromo-1-oxo-4-propan-2-ylphthalazin-2-yl)-N-(3-fluoropyridin-2-yl)acetamide], the IC50 runs as follows: (class column of Table 3) less than 10000 nM; (numeric column of Table 3) 529 nM.

Turning to `CC(C)c1nn(CC(=O)Nc2nc(Cl)ccc2F)c(=O)c2ccc(Br)cc12` [Example 36, 2-(6-bromo-1-oxo-4-propan-2-ylphthalazin-2-yl)-N-(6-chloro-3-fluoropyridin-2-yl)acetamide], the IC50 by setting is: (class column of Table 3) less than 10000 nM; (numeric column of Table 3) 2800 nM.

Consider `CC(C)c1nn(CC(=O)Nc2c(F)cncc2F)c(=O)c2ccc(Br)cc12` [Example 37, 2-(6-bromo-1-oxo-4-propan-2-ylphthalazin-2-yl)-N-(3,5-difluoropyridin-4-yl)acetamide], for which the IC50 runs as follows: (class column of Table 3) less than 10000 nM; (numeric column of Table 3) 4950 nM.

Take `CC(C)c1nn(CC(=O)Nc2ncc(F)cc2F)c(=O)c2ccc(Br)cc12` [Example 38, 2-(6-bromo-1-oxo-4-propan-2-ylphthalazin-2-yl)-N-(3,5-difluoropyridin-2-yl)acetamide]: the IC50 is less than 10000 nM (class column of Table 3) and 913 nM (numeric column of Table 3).

On to `CC(C)c1nn(CC(=O)Nc2ncccn2)c(=O)c2ccc(Br)cc12` [Example 39, 2-(6-bromo-1-oxo-4-propan-2-ylphthalazin-2-yl)-N-pyrimidin-2-ylacetamide], for which the IC50 is less than 10000 nM (class column of Table 3) and 54 nM (numeric column of Table 3).

Take `CC(C)c1nn(CC(=O)Nc2nc(F)ccc2F)c(=O)c2ccc(Br)cc12` [Example 40, 2-(6-bromo-1-oxo-4-propan-2-ylphthalazin-2-yl)-N-(3,6-difluoropyridin-2-yl)acetamide]: the IC50 is less than 10000 nM (class column of Table 3) and 1060 nM (numeric column of Table 3).

For the molecule `CC(C)c1nn(CC(=O)Nc2ncc(C(F)(F)F)cc2F)c(=O)c2ccc(Br)cc12` [Example 41, 2-(6-bromo-1-oxo-4-propan-2-ylphthalazin-2-yl)-N-[3-fluoro-5-(trifluoromethyl)pyridin-2-yl]acetamide], the IC50 is, setting by setting: (class column of Table 3) less than 10000 nM; (numeric column of Table 3) 163 nM.

As for `CC(C)c1nn(CC(=O)NC2CCC(F)(F)C2)c(=O)c2ccc(Br)cc12` (stereo not drawn) [Example 42, 2-(6-bromo-1-oxo-4-propan-2-ylphthalazin-2-yl)-N-(3,3-difluorocyclopentyl)acet amide], the IC50 reads like this: (class column of Table 3) less than 10000 nM; (numeric column of Table 3) 3350 nM.

Turning to `CC1CC(NC(=O)Cn2nc(C(C)C)c3cc(Br)ccc3c2=O)CCO1` (stereo not drawn) [Example 43, 2-(6-bromo-1-oxo-4-propan-2-ylphthalazin-2-yl)-N-(2-methyloxan-4-yl)acetamide], the IC50 by setting is: (class column of Table 3) less than 10000 nM; (numeric column of Table 3) 4230 nM.
